The values that follow come from article PMC11510329, “Molecular Networking, Docking, and Biological Evaluation of Licarin A from Myristica fragrans as a Potential Cancer Chemopreventive Agent” (Molecules, 2024).

Data set [1] has as its system DU-145 prostate cancer cells. The data set is described as follows: Cell viability crystal violet assay. Format: cell-based, Homo sapiens. The following applies: rocaglamide at concentrations higher than 6 μM. Here is the method: The cell viability of DU-145 prostate cancer cells was evaluated after treatment with 1, 2, and the positive control rocaglamide using the protocol from a Phospho-NF-kappaBp65 (S468 + S536) and Total In-Cell ELISA Kit (ab207482) (Abcam Inc., Waltham, MA, USA), after initial PhosphoNF-κBp65 translocation steps (Section 4.11).

Data set [2] in a line: SRB cell cytotoxicity assay. The following applies: human, DU-145 prostate cancer cells; DU-145; Supplementary Figure S7; read-out: cytotoxic concentration in vitro (IC50). The data set is classed as cell-based, Homo sapiens. Here is the method:
(§1) The antiproliferative effects of 1, the chemopreventive control 2, and the positive control paclitaxel were measured using a sulforhodamine B (SRB) cytotoxicity assay. Briefly, DU-145 prostate cancer cells (5 × 10^4 cells/well) were seeded in a 96-well plate overnight. Then, the cells were treated at different concentrations ranging from 0 to 150 μM with each test compound for 24, 48, and 72 h (Supplementary Figure S7). After being treated, the cells were incubated with cold trichloroacetic acid (20%, 30 min), washed with tap water, stained with SRB (0.4%, 30 min), and washed subsequently with acetic acid (1%). Finally, the unbound dye was solubilized using 200 μL of Tris-base (10 mM) and the absorbance read at 515 nm using a FLUOstar Optima microplate reader (BMG Labtech Inc., Durham, NC, USA). The percent inhibition was determined by using the formula provided in the prior publication.

The subject of data set [3] is DU-145 prostate cancer cells. Description: SRB cell cytotoxicity assay. The data set is classed as cell-based, Homo sapiens. Particulars: DU-145 human prostate cancer cells. As for the experimental part: as §1
Data set [4] has as its system Hepa1c1c7 mouse hepatoma cells. Description: Cell oxidative stress real-time dose–response assay (ROS, DCFH-DA). Format: cell-based. Here is the method:
A reactive oxygen species (ROS) assay was performed following a previously described procedure. The generated intracellular levels of ROS were measured using the fluorescent probe 2′,7′-dichlorodihydrofluorescein diacetate (DCFH-DA). Hepa1c1c7 mouse hepatoma cells were seeded in a 96-well plate, treated with 1, 2, or the positive control rocaglamide, followed by 5 h incubation at 37 °C with 5% CO2. Subsequently, cells were incubated with H2O2 (1.25 mM) and FeSO4 for 30 min at 37 °C. Later, the fluorescent probe DCFH-DA was added to determine intracellular ROS. Fluorescence was measured using a FLUOstar Optima fluorescence plate reader (BMG Labtech Inc., Durham, NC, USA) at an excitation wavelength of 485 nm and emission wavelength of 530 nm. All treatments performed in triplicate were representative of at least two different experiments.

In data set [5] the test system is phosphoNF-κBp65 in DU-145 prostate cancer cells. The data set is described as follows: PhosphoNF-κBp65 assay (In-Cell ELISA). The data set is classed as cell-based, Homo sapiens. Here is the method:
PhosphoNF-κBP65 phosphorylation levels were evaluated using the protocol from an Abcam Phospho-NF-kappaBp65 ([…] + […]) + Total In-Cell ELISA Kit (ab207482) (Abcam Inc., Waltham, MA, USA). The effects of 1, the natural product chemopreventive positive control 2, and a rocaglamide positive control in the PhosphoNF-κBp65 assay activity were measured using a FLUOstar Optima plate reader. DU-145 or Hepa1c1c7 cells (5 × 10^4 cells/well) were seeded in a white 96-well plate and treated (0-150 μM) for 5 h. Afterwards, luminescence was measured using a FLUOstar Optima plate reader.

Data set [6] has as its system zebrafish (Danio rerio). Description: Toxicity assay in zebrafish. The following applies: for morphological changes / developmental abnormalities: tamoxifen 50 μM at 48 h, 1 100 μM at 48 h, 2 100 μM at 24 h. Here is the method:
Animals were provided by the Department of Neuroscience at The Ohio State University (OSU) (OSU IACUC-approved animal protocol number 2014A00000006-R1-AR1). Zebrafish embryos were housed in aquaculture water at 28 °C with a 14 h/10 h light/dark cycle. After 24 h post fertilization (hpf), groups of random embryos were exposed to different concentrations (0, 50, or 100 μM, n = 25) for 24 and 48 h. Then, images of the zebrafish were taken using an Axiovert 40 CFL Zeiss microscope and ProgRes C10 plus camera. Morphological changes in zebrafish development were determined and recorded.

For data set [7], the system named is HT-29 human colon cancer cells. The following applies: nanomolar range; cited from earlier work.

Structures are written as SMILES.

Consider `COc1ccc([C@@]23Oc4cc(OC)cc(OC)c4[C@]2(O)[C@H](O)[C@H](C(=O)N(C)C)[C@H]3c2ccccc2)cc1` [Rocaglamide, reference compound], for which the “cell viability (crystal violet)” value in data set [1] was “maintained the same level of cell viability”.

Regarding `C/C=C/c1cc(OC)c2c(c1)[C@H](C)[C@@H](c1ccc(O)c(OC)c1)O2` [compound 1, licarin A], in data set [2], the IC50 came to 100 µM. For the same compound, the growth inhibitory activity entry in data set [3] is reported as “did not produce any discernible growth inhibitory activity”. The “effective concentration for oxidative control” value in data set [4] (Hepa1c1c7) was 48 nM. Further, the “effective concentration for inducing NF-κB phosphorylation” value in data set [5] is given as 9.6 nM. Further, the “% survival” value in data set [6] (48 h exposure, tamoxifen 50 μM, 1 and 2 100 μM, mean ± SEM) was 100%. Moreover, the “morphological changes / developmental abnormalities” value in data set [6] is reported as “lack of morphological changes”. Moreover, the “cell viability (crystal violet)” value in data set [1] is “remained alive and proliferated, but in a controlled manner”.

For the compound `O=C(/C=C/c1ccc(O)cc1)c1ccc(O)cc1O` [compound 2, Isoliquiritigenin, reference compound], the “duration of reduction in cellular stress (time until activity degrades)” value in data set [4] (48 nM, assay duration 60 min) stood at 30 min. The “% of hatching” value in data set [6] (24 h exposure, tamoxifen 50 μM, 1 and 2 100 μM, mean ± SEM) was determined as 100%. Besides, in data set [6], the “morphological changes / developmental abnormalities” value is on record as “curved spines or shortened tails”.

Consider `C/C=C/c1cc(OC)c2c(c1)[C@@H](C)[C@H](c1cc(OC)c(OC)c(OC)c1)O2` [licarin C], for which the cytotoxicity entry in data set [7] is recorded as “potently cytotoxic”.
